Experimental data published in patent publication US11987645B2, “Peptide for treating rheumatoid arthritis and use thereof” (SEOUL NATIONAL UNIVERSITY R&DB FOUNDATION, priority 2018, dated 2024).

What was measured:
[1] = tested on: peripheral blood mononuclear cells obtained from rheumatoid arthritis patients; assay: Inflammatory cytokine secretion after treating peripheral blood mononuclear cells of rheumatoid arthritis patients with apoB100-derived peptides #1 to #5; assay type: cell-based, human; conditions: PBMC of rheumatoid arthritis patients; control non-binding peptide (NBP); FIG. 8
Procedure: Thereafter, peripheral blood mononuclear cells obtained from the healthy control and rheumatoid arthritis patients were treated with the peptides #1 to #5 (which are named apoB100 #1, apo100 #2, apoB100 #3, apoB100 #4, and apoB100 #5, respectively), and changes in the secretion of IL-1β, IL-6 and TNF-α were compared. Meanwhile, a non-binding peptide treated group (NBP) was determined as the control group, and the results of this example are indicated as the mean values of the secretion levels for each six of rheumatoid arthritis patients and healthy individuals.

[2] = tested on: K/B×N rheumatoid arthritis animal model; assay: Example 3-2: K/B×N rheumatoid arthritis animal model (K/B×N serum transfer arthritis mouse); assay type: in vivo; conditions: subcutaneous injection to the affected region; K/B×N serum and apoB induced; FIG. 11
Description: K/B×N rheumatoid arthritis animal model (K/B×N serum transfer arthritis mouse) was established by inducing moderate rheumatoid arthritis by administering K/B×N serum and apoB to the mouse, and peptides for inhibiting the secretion of inflammatory cytokine were subcutaneously injected to the affected region of the animal model. Afterwards, changes in the ankle thickness and arthritis score resulting after peptide injection were identified. In addition, under the same conditions as described above, changes in the synovial inflammation, bone erosion, cartilage damage and leukocyte infiltration were compared. Meanwhile, groups treated with K/B×N serum and apoB only were determined as control groups, and groups treated with K/B×N serum and apoB, and a non-binding peptide treated group (NBP) were determined as comparison groups.

[3] = tested on: peripheral blood cells derived from rheumatoid arthritis patients; assay: Example 3-1: inflammatory cytokine secretion in peripheral blood cells derived from rheumatoid arthritis patients; assay type: cell-based, human; conditions: FIG. 10; for secretion level of IL-1β / secretion level of IL-6 / secretion level of TNF-α: peripheral blood cells of rheumatoid arthritis patients, control NBP
Procedure: After peripheral blood cells derived from rheumatoid arthritis patients were treated with apoB100 #1, apoB100 #3, and apoB100 #5, changes in the secretion of IL-1β, IL-6 and TNF-α were identified. A non-binding peptide treated group (NBP) was determined as the control group.

[4] = tested on: peripheral blood mononuclear cells isolated from rheumatoid arthritis patients; assay: Inflammatory cytokine secretion after treating peripheral blood mononuclear cells of rheumatoid arthritis patients with apoB100; assay type: cell-based, human
Description: In this example, in order to identify the relation between rheumatoid arthritis and ENO1 expression on peripheral blood mononuclear cells, the ENO1 expression thereof was observed. In addition, it was attempted to identify the effect of binding ENO1 (α-enolase) to apolipoprotein B100 (apoB100) isolated from a rheumatoid arthritis patient and selected as an ENO1 (α-enolase) binding ligand on the secretion of inflammatory cytokine in the peripheral blood of the rheumatoid arthritis patient through proteomic analysis using immunoprecipitation (IP)/mass spectroscopy (MS). In detail, after ENO1 immunoblotting was performed on mononuclear cells obtained from the rheumatoid arthritis patient and peripheral blood mononuclear cells were treated with apoB100, changes in the secretion of IL-1β, IL-6 and TNF-α were compared. Meanwhile, a group in which cells isolated from healthy individuals are used (HC: healthy control) was determined as the control group.
Accordingly, in this example, it was additionally verified whether the binding of ENO1 and apoB100 crucially affected inflammation responses due to rheumatoid arthritis. […] In addition, since LDL existing in vivo in a state in which it binds to apoB100 protein may potentially involve the inflammation responses, LDLR knockout mouse and C57BL/6 wild-type mouse control group were treated with the serum of K/B×N mouse (referred to as K/B×N serum, hereinafter) and ApoB100, and resulting changes in vivo were compared. Meanwhile, addition of K/B×N mouse serum functions to induce rheumatoid arthritis through deposition of autoantibodies existing in the K/B×N serum, and is one of conventional techniques for manufacturing rheumatoid arthritis animal models by autoimmune responses.

[5] = biological target: ENO1 (α-enolase) (Homo sapiens, UniProt P06733); assay: ENO1-apoB100 binding by immunoblotting, confocal microscopy, BIACORE system and ELISA assay; conditions: ELISA, FIG. 3
Sequence of ENO1 (α-enolase) (P06733 whole entry): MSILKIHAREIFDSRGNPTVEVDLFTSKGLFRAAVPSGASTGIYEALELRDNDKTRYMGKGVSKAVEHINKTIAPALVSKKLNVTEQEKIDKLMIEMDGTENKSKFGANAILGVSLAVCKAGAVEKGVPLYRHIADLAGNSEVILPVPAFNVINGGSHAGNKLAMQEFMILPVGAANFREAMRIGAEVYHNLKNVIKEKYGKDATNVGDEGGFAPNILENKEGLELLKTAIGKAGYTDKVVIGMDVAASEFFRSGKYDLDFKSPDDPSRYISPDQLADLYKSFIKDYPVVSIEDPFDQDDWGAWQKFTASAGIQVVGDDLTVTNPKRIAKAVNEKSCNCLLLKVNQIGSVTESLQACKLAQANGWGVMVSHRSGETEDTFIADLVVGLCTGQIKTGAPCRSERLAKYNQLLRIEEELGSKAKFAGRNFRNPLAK

[6] = RA patient mononuclear cells treated with apoB100, compared to healthy control group, FIG. 2

Row | Substance | secretion level of IL-1β [1] | secretion level of IL-6 [1] | secretion level of TNF-α [1] | ankle thickness [2] | arthritis score [2] | secretion level of IL-1β [3] | secretion level of IL-6 [3] | secretion level of TNF-α [3] | treatment efficacy (decrease of cytokine secretion) compared among the peptides ([3]; among apoB100 #1, #3 and #5) | secretion level of inflammatory cytokines ([4]; ENO1 expression of PBMC inhibited with ENO1 siRNA, then apoB100 treatment, FIG. 4) | secretion level of IL-1β [4, 6] | secretion level of IL-6 [4, 6] | secretion level of TNF-α [4, 6] | ENO1-apoB100 binding [5]
1 | CKEQHLFLPFSY (peptide #2) [apoB100 #2] | markedly increased | markedly increased | markedly increased |  |  |  |  |  |  |  |  |  |  | 
2 | TKKMGLAFESTK (peptide #5) [apoB100 #5] | decreased | decreased | decreased | significantly decreased | significantly decreased | significantly decreased | significantly decreased | significantly decreased |  |  |  |  |  | 
3 | KNKYGMVAQVTQ (peptide #4) [apoB100 #4] | markedly increased | markedly increased | markedly increased |  |  |  |  |  |  |  |  |  |  | 
4 | SYKNKYGMVAQV (peptide #3) [apoB100 #3] | decreased | decreased | decreased | significantly decreased | significantly decreased | significantly decreased | significantly decreased | significantly decreased | highest |  |  |  |  | 
5 | AICKEQHLFLPF (peptide #1) [apoB100 #1] | decreased | decreased | decreased | significantly decreased | significantly decreased | significantly decreased | significantly decreased | significantly decreased |  |  |  |  |  | 
6 | apolipoprotein B100 [apoB100] |  |  |  |  |  |  |  |  |  | an increased secretion level of inflammatory cytokines was not observed | markedly increased | markedly increased | markedly increased | relatively strong binding
